Article PMC7038139, “Novel Peptide CM 7 Targeted c-Met with Antitumor Activity” (Molecules, 2020)
Entries after “also recorded” stand apart in the source; their conditions may differ.

What was measured:
[1] = tested on: U87 cells; test: Cell proliferation assay, U87 (HGF-stimulated); type: cell-based, human; conditions: Crizotinib 40 nM, positive control; 20 ng/mL HGF; 4 days
Experimental: (§1) Human gastric cancer cell line MKN-45 cells were from the Chinese Academy of Medical Sciences, Beijing, China. Human gastric cancer cell line MKN-28 cells, the human glioma cell line U87 cells, and MDCK cells were obtained from the American Type Culture Collection (ATCC). The MKN-45 and MKN-28 cells were grown under a humidified atmosphere of 5% CO2 at 37 °C in RPMI 1640 medium (Biological Industries, Israel), supplemented with 10% fetal bovine serum (FBS, Biological Industries, Israel), 2 mmol/L L-glutamine (Gibco, Life Technologies, Grand Island, NY, USA), 100 U/mL penicillin, and 100 μg/mL streptomycin (Invitrogen, Carlsbad, CA, USA). MDCK and U87 cells were cultured under a humidified atmosphere of 5% CO2 at 37 °C in Dulbecco’s modified Eagle’s medium (DMEM) (Gibco, Life Technologies, Grand Island, NY, USA), supplemented with 10% FBS, 2 mmol/L L-glutamine (Gibco, Life Technologies, Grand Island, NY, USA), 100 U/mL penicillin, and 100 μg/mL streptomycin (Invitrogen, Carlsbad, CA, USA).
(§2) As described in the literature, MKN-45, MKN-28, and U87 cells were seeded into 48-well culture plates (6500 cells/well) and cultured overnight. […] After 4 days, the cells were trypsinized and counted by a cell counter. […]

[2] = tested on: MKN-45 cells; test: Cell proliferation assay, MKN-45; type: cell-based, Human; conditions: Crizotinib 40 nM, positive control; 4 days
Experimental: as §1, §2

[3] = tested on: MKN-28 cells; test: Cell proliferation assay, MKN-28; type: cell-based, Human; conditions: Crizotinib 40 nM, positive control; 4 days
Experimental: as §1, §2

[4] = tested on: c-Met-negative MKN-28 cells; test: Confocal microscope imaging of binding to MKN-28 cells; parameters: species or system Human; conditions: MKN-28 cells (fixed); 1 μM, 1 h, room temperature
Experimental: as §1
(§3) MKN-45 and MKN-28 cells were plated separately in a glass-bottom cell culture dish (NEST) with serum-free media overnight. The next day, cells were fixed with 4% paraformaldehyde for 20 min at room temperature. […]

[5] = tested on: c-Met-positive MKN-45 cells; test: Flow cytometry binding to c-Met-positive MKN-45 cells; parameters: species or system Human; conditions: 1 μM, 1 h, room temperature
Experimental: as §1
(§4) A flow cytometry assay was used to evaluate the conjugation and affinity of the newly designed peptides CM 7, CM 14, or FITC alone to c-Met-positive MKN-45 cells and c-Met-negative MKN-28 cells. Briefly, MKN-45 and MKN-28 cells were detached by 0.25% trypsin and the final cell concentration was adjusted to 3 × 10^6 cells/mL. […]

[6] = tested on: c-Met-positive MKN-45 cells; test: Confocal microscope imaging of binding to MKN-45 cells; parameters: species or system Human; conditions: MKN-45 cells (fixed); 1 μM, 1 h, room temperature
Experimental: as §1, §3

[7] = tested on: c-Met-negative MKN-28 cells; test: Flow cytometry binding to c-Met-negative MKN-28 cells; parameters: species or system Human; conditions: 1 μM, 1 h, room temperature
Experimental: as §1, §4

C[C@@H](Oc1cc(-c2cnn(C3CCNCC3)c2)cnc1N)c1c(Cl)ccc(F)c1Cl [Crizotinib, reference compound]
Inhibition of cell proliferation [1]: significantly inhibit
Inhibition of cell proliferation [2]: significantly inhibit
Inhibition of cell proliferation [3]: significantly inhibit

O=C1OC2(c3ccc(O)cc3Oc3cc(O)ccc32)c2ccc(N=C=S)cc21 [FITC, Fluorescein isothiocyanate isomer]
Binding / fluorescent signal by confocal imaging [4]: could not bind to MKN-45 or MKN-28 cells; also recorded: did not show any fluorescent signals
Binding by flow cytometry (in words) [5]: hardly combined
Binding / fluorescent signal by confocal imaging [6]: could not bind to MKN-45 or MKN-28 cells
Binding by flow cytometry (in words) [7]: hardly combined
